Source: US11000033B2, “Ketone or oxime compound, and herbicide” (NISSAN CHEMICAL CORPORATION, priority 2014, dated 2021)

Tests used:
Assay type in all cases: in vivo
Amaranthus retroflexus = test: Test Example 4: herbicidal effect by soil treatment (symbol N)
Outline: (§1)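 Seeds were sown in sterilized diluvial soil, covered with about 1.5 cm of soil, and the soil surface was sprayed with a water-diluted emulsion of the compound at a predetermined rate. Plants grew in a greenhouse at 25° C. to 30° C.; effects were scored visually 3 weeks after application.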

Veronica persica = test: Test Example 4: herbicidal effect by soil treatment (symbol R)
Outline: as §1

[1] = system: directly sowed rice plant; test: Test Example 3: effect on crop by foliage application, Wagner pot (symbol b); conditions: application herbicide amount 320 g/ha
Outline: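 Wagner pot (1/10000 are), alluvial soil, submerged 0.1–0.5 cm; sown E. crus-galli var. crus-galli, L. chinensis, C. difformis, rice; greenhouse 25–30 °C.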

Alopecurus myosuroides = test: Test Example 4: herbicidal effect by soil treatment (symbol J)
Outline: as §1

Avena fatua = test: Test Example 4: herbicidal effect by soil treatment (symbol I)
Outline: as §1

Digitaria ciliaris = test: Test Example 5: herbicidal effect by foliage application, plastic box (symbol F); conditions: 320 g/ha, 3 weeks after application
Outline: (§2)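 Post-emergence spray; diluvial soil (sterilized), ~1.5 cm seed cover; greenhouse 25–30° C; 14-day-old plants; water-diluted emulsion at predetermined dose; visual score at 3 wk post-treatment.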

rapeseed = test: Test Example 4: effect on crop by soil treatment (symbol g); conditions: for g: rapeseed, effect on crop grade: application herbicide amount 320 g/ha
Outline: (§3)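 Diluvial soil (sterilized) in boxes; seeds placed spot-wise alongside weed species; ~1.5 cm covering soil. Greenhouse, 25–30° C.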

soybean = test: Test Example 4: effect on crop by soil treatment (symbol d); conditions: for d: soybean, effect on crop grade: application herbicide amount 320 g/ha
Outline: as §3

Abutilon theophrasti = test: Test Example 4: herbicidal effect by soil treatment (symbol M)
Outline: as §1

transplanted rice plant = test: Test Example 1: effect on crop, application before weed generation in submerged conditions (symbol a); conditions: application herbicide amount 320 g/ha
Outline: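 Rice at 2.5 leaf stage transplanted into submerged soil (4 cm depth) sown with three weed species; herbicide applied before weed emergence.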

Scirpus juncoides = test: Test Example 1: herbicidal activity, application before weed generation in submerged conditions (symbol B); conditions: application herbicide amount 320 g/ha
Outline: (§4)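 Pre-emergence, paddy conditions: emulsifiable formulation diluted in water, dosed onto floodwater (4 cm depth) on sowing day. Alluvial soil; weeds sown mixed; rice transplanted at 2.5-leaf stage. Greenhouse 25–30 °C, 3 wk. Score 0–5 (5 = ≥90% kill, 0 = ≤5%).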

[2] = system: Echinochloa crus-galli var. crus-galli; test: Test Example 5: herbicidal effect by foliage application, plastic box (symbol H); conditions: 320 g/ha, 3 weeks after application
Outline: as §2

Monochoria vaginalis = test: Test Example 2: herbicidal activity, application during weed generation in submerged conditions (symbol C); conditions: Table 23; application herbicide amount 320 g/ha; grade 0-5 by criteria of Test Example 1
Outline: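 Steps: fill pots with alluvial soil; add water to 4 cm depth; co-sow the three weeds; grow at 25° C. to 30° C. under glass; at 1–2 leaves, dose the floodwater with diluted emulsion; rate damage visually after 3 weeks.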

[3] = system: Echinochloa oryzacola Vasing.; test: Test Example 1: herbicidal activity, application before weed generation in submerged conditions (symbol A); conditions: application herbicide amount 320 g/ha
Outline: as §4

beet = test: Test Example 4: effect on crop by soil treatment (symbol f); conditions: for f: beet, effect on crop grade: application herbicide amount 320 g/ha
Outline: as §3

[4] = application herbicide amount 320 g/ha

## C=Cc1cc(C)c(C2=C(O)CC(CC(C)=NOC)C2=O)c(C)c1 (mixture of isomers) [6-031]
Amaranthus retroflexus; [4]
  N: Amaranthus retroflexus, herbicidal effect grade: 4 (Herbicidal ratio of 70% or higher and lower than 90%)
Veronica persica; [4]
  R: Veronica persica, herbicidal effect grade: 0 (Herbicidal ratio of 5% or lower (almost no effect))
[1]
  effect on crop b (directly sowed rice plant), grade 0-5: 4 (Herbicidal ratio of 70% or higher and lower than 90%)
Alopecurus myosuroides; [4]
  J: Alopecurus myosuroides, herbicidal effect grade: 0 (Herbicidal ratio of 5% or lower (almost no effect))
Avena fatua; [4]
  I: Avena fatua, herbicidal effect grade: 0 (Herbicidal ratio of 5% or lower (almost no effect))
Digitaria ciliaris
  F: Digitaria ciliaris, herbicidal effect grade: 5 (Herbicidal ratio of 90% or more (almost completely withered))
rapeseed
  g: rapeseed, effect on crop grade: 3 (Herbicidal ratio of 40% or higher and lower than 70%)
soybean
  d: soybean, effect on crop grade: 0 (Herbicidal ratio of 5% or lower (almost no effect))
Abutilon theophrasti; [4]
  M: Abutilon theophrasti, herbicidal effect grade: 0 (Herbicidal ratio of 5% or lower (almost no effect))
Transplanted rice plant
  Effect grade on crop, a: transplanted rice plant: 1 (Herbicidal ratio of 5% or higher and lower than 20%)
Scirpus juncoides
  Herbicidal effect grade, B: Scirpus juncoides: 0 (Herbicidal ratio of 5% or lower (almost no effect))
[2]
  H: Echinochloa crus-galli var. crus-galli, herbicidal effect grade: 5 (Herbicidal ratio of 90% or more (almost completely withered))
Monochoria vaginalis
  Herbicidal effect grade, C: Monochoria vaginalis: 0 (Herbicidal ratio of 5% or lower (almost no effect))
[3]
  Herbicidal effect grade, A: Echinochloa oryzacola Vasing.: 3 (Herbicidal ratio of 40% or higher and lower than 70%)
beet
  f: beet, effect on crop grade: 0 (Herbicidal ratio of 5% or lower (almost no effect))

## CON=C(C)CC1CC(O)=C(c2c(C)cc(C#CCO)cc2C)C1=O (mixture of isomers) [6-025]
Amaranthus retroflexus; [4]
  N: Amaranthus retroflexus, herbicidal effect grade: 0 (Herbicidal ratio of 5% or lower (almost no effect))
Veronica persica; [4]
  R: Veronica persica, herbicidal effect grade: 0 (Herbicidal ratio of 5% or lower (almost no effect))
[1]
  effect on crop b (directly sowed rice plant), grade 0-5: 5 (Herbicidal ratio of 90% or more (almost completely withered))
Alopecurus myosuroides; [4]
  J: Alopecurus myosuroides, herbicidal effect grade: 2 (Herbicidal ratio of 20% or higher and lower than 40%)
Avena fatua; [4]
  I: Avena fatua, herbicidal effect grade: 2 (Herbicidal ratio of 20% or higher and lower than 40%)
Digitaria ciliaris
  F: Digitaria ciliaris, herbicidal effect grade: 4 (Herbicidal ratio of 70% or higher and lower than 90%)
rapeseed
  g: rapeseed, effect on crop grade: 0 (Herbicidal ratio of 5% or lower (almost no effect))
soybean
  d: soybean, effect on crop grade: 0 (Herbicidal ratio of 5% or lower (almost no effect))
Abutilon theophrasti; [4]
  M: Abutilon theophrasti, herbicidal effect grade: 0 (Herbicidal ratio of 5% or lower (almost no effect))
Transplanted rice plant
  Effect grade on crop, a: transplanted rice plant: 3 (Herbicidal ratio of 40% or higher and lower than 70%)
Scirpus juncoides
  Herbicidal effect grade, B: Scirpus juncoides: 0 (Herbicidal ratio of 5% or lower (almost no effect))
[2]
  H: Echinochloa crus-galli var. crus-galli, herbicidal effect grade: 5 (Herbicidal ratio of 90% or more (almost completely withered))
Monochoria vaginalis
  Herbicidal effect grade, C: Monochoria vaginalis: 0 (Herbicidal ratio of 5% or lower (almost no effect))
[3]
  Herbicidal effect grade, A: Echinochloa oryzacola Vasing.: 2 (Herbicidal ratio of 20% or higher and lower than 40%)
beet
  f: beet, effect on crop grade: 0 (Herbicidal ratio of 5% or lower (almost no effect))

## CON=C(C)CC1CC(OC(=O)c2ccc(S(C)(=O)=O)c(C(=O)OC)c2Cl)=C(c2c(C)cc(C)cc2C)C1=O (stereo not drawn) [1-162]
Amaranthus retroflexus; 320 g/ha
  N: Amaranthus retroflexus, herbicidal effect grade: 4 (Herbicidal ratio of 70% or higher and lower than 90%)
Veronica persica; 320 g/ha
  R: Veronica persica, herbicidal effect grade: 0 (Herbicidal ratio of 5% or lower (almost no effect))
[1]
  effect on crop b (directly sowed rice plant), grade 0-5: 5 (Herbicidal ratio of 90% or more (almost completely withered))
Alopecurus myosuroides; 320 g/ha
  J: Alopecurus myosuroides, herbicidal effect grade: 5 (Herbicidal ratio of 90% or more (almost completely withered))
Avena fatua; 320 g/ha
  I: Avena fatua, herbicidal effect grade: 3 (Herbicidal ratio of 40% or higher and lower than 70%)
Digitaria ciliaris
  F: Digitaria ciliaris, herbicidal effect grade: 5 (Herbicidal ratio of 90% or more (almost completely withered))
rapeseed; 320 g/ha
  g: rapeseed, effect grade on crop: 4 (Herbicidal ratio of 70% or higher and lower than 90%)
soybean; 320 g/ha
  d: soybean, effect grade on crop: 0 (Herbicidal ratio of 5% or lower (almost no effect))
Abutilon theophrasti; 320 g/ha
  M: Abutilon theophrasti, herbicidal effect grade: 5 (Herbicidal ratio of 90% or more (almost completely withered))
Transplanted rice plant
  Effect grade on crop, a: transplanted rice plant: 5 (Herbicidal ratio of 90% or more (almost completely withered))
Scirpus juncoides
  Herbicidal effect grade, B: Scirpus juncoides: 4 (Herbicidal ratio of 70% or higher and lower than 90%)
[2]
  H: Echinochloa crus-galli var. crus-galli, herbicidal effect grade: 5 (Herbicidal ratio of 90% or more (almost completely withered))
Monochoria vaginalis
  Herbicidal effect grade, C: Monochoria vaginalis: 2 (Herbicidal ratio of 20% or higher and lower than 40%)
[3]
  Herbicidal effect grade, A: Echinochloa oryzacola Vasing.: 5 (Herbicidal ratio of 90% or more (almost completely withered))
beet; 320 g/ha
  f: beet, effect grade on crop: 0 (Herbicidal ratio of 5% or lower (almost no effect))

## CC#Cc1cc(C)c(C2=C(O)CC(CC(C)=NOC)C2=O)c(CC)c1 (mixture of isomers) [6-006]
Amaranthus retroflexus; [4]
  N: Amaranthus retroflexus, herbicidal effect grade: 3 (Herbicidal ratio of 40% or higher and lower than 70%)
Veronica persica; [4]
  R: Veronica persica, herbicidal effect grade: 2 (Herbicidal ratio of 20% or higher and lower than 40%)
[1]
  effect on crop b (directly sowed rice plant), grade 0-5: 5 (Herbicidal ratio of 90% or more (almost completely withered))
Alopecurus myosuroides; [4]
  J: Alopecurus myosuroides, herbicidal effect grade: 5 (Herbicidal ratio of 90% or more (almost completely withered))
Avena fatua; [4]
  I: Avena fatua, herbicidal effect grade: 4 (Herbicidal ratio of 70% or higher and lower than 90%)
Digitaria ciliaris
  F: Digitaria ciliaris, herbicidal effect grade: 3 (Herbicidal ratio of 40% or higher and lower than 70%)
rapeseed
  g: rapeseed, effect on crop grade: 4 (Herbicidal ratio of 70% or higher and lower than 90%)
soybean
  d: soybean, effect on crop grade: 0 (Herbicidal ratio of 5% or lower (almost no effect))
Abutilon theophrasti; [4]
  M: Abutilon theophrasti, herbicidal effect grade: 4 (Herbicidal ratio of 70% or higher and lower than 90%)
Transplanted rice plant
  Effect grade on crop, a: transplanted rice plant: 5 (Herbicidal ratio of 90% or more (almost completely withered))
Scirpus juncoides
  Herbicidal effect grade, B: Scirpus juncoides: 5 (Herbicidal ratio of 90% or more (almost completely withered))
[2]
  H: Echinochloa crus-galli var. crus-galli, herbicidal effect grade: 4 (Herbicidal ratio of 70% or higher and lower than 90%)
Monochoria vaginalis
  Herbicidal effect grade, C: Monochoria vaginalis: 1 (Herbicidal ratio of 5% or higher and lower than 20%)
[3]
  Herbicidal effect grade, A: Echinochloa oryzacola Vasing.: 5 (Herbicidal ratio of 90% or more (almost completely withered))
beet
  f: beet, effect on crop grade: 0 (Herbicidal ratio of 5% or lower (almost no effect))

## C=CC(=O)CC1CC(O)=C(c2c(C)cc(C)cc2C)C1=O (stereo not drawn) [2-031]
Amaranthus retroflexus; [4]
  N: Amaranthus retroflexus, herbicidal effect grade: 0 (Herbicidal ratio of 5% or lower (almost no effect))
Veronica persica; [4]
  R: Veronica persica, herbicidal effect grade: 0 (Herbicidal ratio of 5% or lower (almost no effect))
[1]
  effect on crop b (directly sowed rice plant), grade 0-5: 5 (Herbicidal ratio of 90% or more (almost completely withered))
Alopecurus myosuroides; [4]
  J: Alopecurus myosuroides, herbicidal effect grade: 3 (Herbicidal ratio of 40% or higher and lower than 70%)
Avena fatua; [4]
  I: Avena fatua, herbicidal effect grade: 0 (Herbicidal ratio of 5% or lower (almost no effect))
Digitaria ciliaris
  F: Digitaria ciliaris, herbicidal effect grade: 5 (Herbicidal ratio of 90% or more (almost completely withered))
rapeseed
  g: rapeseed, effect on crop grade: 3 (Herbicidal ratio of 40% or higher and lower than 70%)
soybean
  d: soybean, effect on crop grade: 0 (Herbicidal ratio of 5% or lower (almost no effect))
Abutilon theophrasti; [4]
  M: Abutilon theophrasti, herbicidal effect grade: 1 (Herbicidal ratio of 5% or higher and lower than 20%)
Transplanted rice plant
  Effect grade on crop, a: transplanted rice plant: 5 (Herbicidal ratio of 90% or more (almost completely withered))
Scirpus juncoides
  Herbicidal effect grade, B: Scirpus juncoides: 4 (Herbicidal ratio of 70% or higher and lower than 90%)
[2]
  H: Echinochloa crus-galli var. crus-galli, herbicidal effect grade: 5 (Herbicidal ratio of 90% or more (almost completely withered))
Monochoria vaginalis
  Herbicidal effect grade, C: Monochoria vaginalis: 0 (Herbicidal ratio of 5% or lower (almost no effect))
[3]
  Herbicidal effect grade, A: Echinochloa oryzacola Vasing.: 4 (Herbicidal ratio of 70% or higher and lower than 90%)
beet
  f: beet, effect on crop grade: 0 (Herbicidal ratio of 5% or lower (almost no effect))
